These results are taken from ChEMBL document CHEMBL1148190, “Xestokerols A, B, and C, New C 29 Steroids with a Cyclopropane Ring from the Okinawan Marine Sponge Xestospongia sp” (J Nat Prod, 1993).

In brackets after ≈: the same amount, converted by molar mass. Activity calls are given as the source filed them. No cut-off for these calls is given here.

The subject of assay [1] is Bacillus subtilis. Put plainly: Antibacterial activity against Bacillus subtilis. It is filed as functional.
Assay [2] concerns Micrococcus luteus. Put plainly: Antibacterial activity against Sarcina lutea. It is filed as functional.
The subject of assay [3] is L1210. Put plainly: Cytotoxicity against mouse L1210 cells. It is filed as functional, cell-based.
The subject of assay [4] is Staphylococcus aureus. Kind of assay: Antibacterial activity against Staphylococcus aureus. The assay is classed as functional.
In assay [5] the test system is KB. Kind of assay: Cytotoxicity against human KB cells. It is filed as functional, cell-based.
Assay [6] concerns Micrococcus luteus. Kind of assay: Antibacterial activity against Sarcina lutea at 260 ug/ml. It is filed as functional, organism-based.
For assay [7], the system named is Staphylococcus aureus. Put plainly: Antibacterial activity against Staphylococcus aureus at 260 ug/ml. It is filed as functional, organism-based.
Assay [8] concerns Bacillus subtilis. Put plainly: Antibacterial activity against Bacillus subtilis at 260 ug/ml. The assay is classed as functional, organism-based.

Take `CC1CC1C(C)CC(O)C(O)(CO)[C@H]1CC[C@H]2[C@@H]3CC[C@H]4CC(=O)CC[C@]4(C)[C@H]3C[C@@H](O)[C@]12C` (stereo partly drawn) [XESTOKEROL A]: the MIC in assay [1], in assay [2] and in assay [4] was 16 µg/mL (≈ 33.6 µM) each time. For the same compound, the IC50 (in general, the point on the concentration scale where inhibition reaches its midpoint) in assay [3] came to 2.1 µg/mL (≈ 4.41 µM); in assay [5], 4.4 µg/mL (≈ 9.23 µM).
With `CC(CCC(C)(O)[C@H]1CC[C@H]2[C@@H]3[C@H](O)C[C@H]4CC(=O)CC[C@]4(C)[C@H]3C[C@@H](O)[C@]12C)C1CC1C` (stereo partly drawn) [XESTOKEROL B], the IC50 came out at 2.2 µg/mL (≈ 4.78 µM) in assay [3] and 4.6 µg/mL (≈ 9.98 µM) in assay [5]. The outcome in assay [6], in assay [7] and in assay [8] was inactive.
Take `C=C(C(=O)CC(C)C1CC1C)[C@H]1CC[C@H]2[C@@H]3CC[C@H]4CC(=O)CC[C@]4(C)[C@H]3C[C@@H](O)[C@]12C` (stereo partly drawn) [XESTOKEROL C]: in assay [2], the MIC (as a rule, the least concentration at which growth counts as inhibited) came out at 66 µg/mL (≈ 150 µM). Besides, the IC50 in assay [3] is 0.78 µg/mL (≈ 1.77 µM); in assay [5], over 10 µg/mL.
